{"source": "patent US20090270373A1", "about": "“TREATMENT OF DOWN SYNDROM WITH BENZODIAZEPINE RECEPTOR ANTAGONISTS” (Cypress Biosciences, Inc., priority 2008, published 2009)", "test_system": "Down Syndrome patients", "assay": "Cognition in Down Syndrome patients, double-blind cross-over (Example 3)", "type": "in vivo, human", "settings": "5 and 20 mg", "method": "Fifteen adult or adolescent Down Syndrome patients experiencing at least some level of cognitive impairment participate in a double-blind, cross-over comparison of […]. The drugs administered are flumazenil (5 and 20 mg), bretazenil (5 and 20 mg) or placebo. Subjects are randomly assigned to treatments according to a Williams Square design (Higgitt, supra (citing Williams, “Experimental designs balanced for the estimation of residual effects of treatments, Aust. J. Sci. Res. 2:149-168 (1949))). Each subject receives a different sequence of four treatments balanced for carry-over effects and separated by at least 1 week of wash-out period. […]\nPsychophysiological indices to be measured include: EEG, skin conductance, finger tremor, critical flicker fusion threshold, blood pressure and pulse rate, key tapping rate, and reaction time. […]\nEEG and evoked responses: These are recorded during the same EEG recording procedure. […] In addition, the four values are summed and each is expressed as a percentage of the total.\nThe averaged evoked responses are obtained from the 500 ms epoch of the EEG following each of the 32 click stimuli. […] The latency at each peak and peak-to-peak amplitudes are computed and recorded automatically. […]\nSkin conductance, blood pressure and pulse rate can be measured by the method of Higgitt et al., supra. […]"}
{"compound": "CCOC(=O)c1ncn2c1CN(C)C(=O)c1cc(F)ccc1-2", "note": "[flumazenil, 8-fluoro-5,6-dihydro-5-methyl-6-oxo-4H-imidazo[1,5-a]benzodiazepine-3-carboxylic acid ethyl ester]", "values": [{"measurement": "indicators of cognition as compared to placebo", "result": "improvement in one or more indicators of cognition"}]}
